Reference: PMC7411887, “New Paracyclophanylthiazoles with Anti-Leukemia Activity: Design, Synthesis, Molecular Docking, and Mechanistic Studies” (Molecules, 2020)

Columns and labels:
[1] = system: NCI-H522; test: NCI single-dose screen (SRB); type: cell-based; conditions: Homo sapiens; Non-Small-Cell Lung Cancer NCI-H522; 10^−5 M; read-out: Growth inhibition percentage
Protocol: (§1) The methodology of the NCI anticancer screening was described in detail elsewhere (http://www.dtp.nci.nih.gov). […] Tested compounds were added to the culture at a single concentration (10^−5 M) and the cultures were incubated for 48 h. End-point determinations were made with a protein binding dye, SRB. Results for each tested compound were reported as the percentage growth of the treated cells when compared to the untreated control cells. The percentage growth was evaluated spectrophotometrically versus controls not treated with test agents. All experiments were repeated three times (Table 1).
(§2) Briefly, the protocol was performed on 60 human tumor cell lines derived from different nine neoplastic diseases. […] If the results obtained met selection criteria, then the compound was tested again on all 60 cell lines in 5× 10-fold dilutions with the top dose being 10^−4 M or 150 μg/mL. Detailed methods are described in the Supplementary Materials related to this article.
(§3) on their site (http://www.dtp.nci.nih.gov). But briefly, the protocol performed at sixty human
(§4) National Cancer Institute, Bethesda, USA. If the results obtained meet selection criteria, then the
(§5) 10-4 molar or 150 μg/mL. […]

[2] = system: MDA-MB-468; test: NCI single-dose screen (SRB); type: cell-based; conditions: Homo sapiens; Breast Cancer MDA-MB-468; 10^−5 M; read-out: Growth inhibition percentage
Protocol: as §1, §2, §3, §4, §5

[3] = system: NCI-H460; test: NCI single-dose screen (SRB); type: cell-based; conditions: Homo sapiens; Non-Small-Cell Lung Cancer NCI-H460; 10^−5 M; read-out: Growth inhibition percentage
Protocol: as §1, §2, §3, §4, §5

[4] = system: HCT-15; test: NCI single-dose screen (SRB); type: cell-based; conditions: Homo sapiens; Colon Cancer HCT-15; 10^−5 M; read-out: Growth inhibition percentage
Protocol: as §1, §2, §3, §4, §5

[5] = system: SF-539; test: NCI single-dose screen (SRB); type: cell-based; conditions: Homo sapiens; CNS Cancer SF-539; 10^−5 M; read-out: Growth inhibition percentage
Protocol: as §1, §2, §3, §4, §5

[6] = system: UO-31; test: NCI single-dose screen (SRB); type: cell-based; conditions: Homo sapiens; Renal Cancer UO-31; 10^−5 M; read-out: Growth inhibition percentage
Protocol: as §1, §2, §3, §4, §5

[7] = system: SK-MEL-2; test: NCI single-dose screen (SRB); type: cell-based; conditions: Homo sapiens; Melanoma SK-MEL-2; 10^−5 M; read-out: Growth inhibition percentage
Protocol: as §1, §2, §3, §4, §5

[8] = system: RPMI-8226; test: NCI single-dose screen (SRB); type: cell-based; conditions: Homo sapiens; Leukemia RPMI-8226; 10^−5 M; read-out: Growth inhibition percentage
Protocol: as §1, §2, §3, §4, §5

[9] = system: MALME-3M; test: NCI single-dose screen (SRB); type: cell-based; conditions: Homo sapiens; Melanoma MALME-3M; 10^−5 M; read-out: Growth inhibition percentage
Protocol: as §1, §2, §3, §4, §5

[10] = system: UACC-257; test: NCI single-dose screen (SRB); type: cell-based; conditions: Homo sapiens; Melanoma UACC-257; 10^−5 M; read-out: Growth inhibition percentage
Protocol: as §1, §2, §3, §4, §5

[11] = system: MDA-MB-435; test: NCI single-dose screen (SRB); type: cell-based; conditions: Homo sapiens; Melanoma MDA-MB-435; 10^−5 M; read-out: Growth inhibition percentage
Protocol: as §1, §2, §3, §4, §5

[12] = system: HCT-116; test: NCI single-dose screen (SRB); type: cell-based; conditions: Homo sapiens; Colon Cancer HCT-116; 10^−5 M; read-out: Growth inhibition percentage
Protocol: as §1, §2, §3, §4, §5

[13] = system: SF-268; test: NCI single-dose screen (SRB); type: cell-based; conditions: Homo sapiens; CNS Cancer SF-268; 10^−5 M; read-out: Growth inhibition percentage
Protocol: as §1, §2, §3, §4, §5

[14] = system: HCC-2998; test: NCI single-dose screen (SRB); type: cell-based; conditions: Homo sapiens; Colon Cancer HCC-2998; 10^−5 M; read-out: Growth inhibition percentage
Protocol: as §1, §2, §3, §4, §5

[15] = system: OVCAR-5; test: NCI single-dose screen (SRB); type: cell-based; conditions: Homo sapiens; Ovarian Cancer OVCAR-5; 10^−5 M; read-out: Growth inhibition percentage
Protocol: as §1, §2, §3, §4, §5

[16] = system: EKVX; test: NCI single-dose screen (SRB); type: cell-based; conditions: Homo sapiens; Non-Small-Cell Lung Cancer EKVX; 10^−5 M; read-out: Growth inhibition percentage
Protocol: as §1, §2, §3, §4, §5

[17] = system: HT29; test: NCI single-dose screen (SRB); type: cell-based; conditions: Homo sapiens, HT-29; Colon Cancer HT29; 10^−5 M; read-out: Growth inhibition percentage
Protocol: as §1, §2, §3, §4, §5

[18] = system: A549/ATCC; test: NCI single-dose screen (SRB); type: cell-based; conditions: Homo sapiens; Non-Small-Cell Lung Cancer A549/ATCC; 10^−5 M; read-out: Growth inhibition percentage
Protocol: as §1, §2, §3, §4, §5

[19] = system: HS 578T; test: NCI single-dose screen (SRB); type: cell-based; conditions: Homo sapiens; Breast Cancer HS 578T; 10^−5 M; read-out: Growth inhibition percentage
Protocol: as §1, §2, §3, §4, §5

[20] = system: UACC-62; test: NCI single-dose screen (SRB); type: cell-based; conditions: Homo sapiens; Melanoma UACC-62; 10^−5 M; read-out: Growth inhibition percentage
Protocol: as §1, §2, §3, §4, §5

[21] = system: SK-MEL-5; test: NCI single-dose screen (SRB); type: cell-based; conditions: Homo sapiens; Melanoma SK-MEL-5; 10^−5 M; read-out: Growth inhibition percentage
Protocol: as §1, §2, §3, §4, §5

[22] = system: HOP-92; test: NCI single-dose screen (SRB); type: cell-based; conditions: Homo sapiens; Non-Small-Cell Lung Cancer HOP-92; 10^−5 M; read-out: Growth inhibition percentage
Protocol: as §1, §2, §3, §4, §5

[23] = system: MOLT-4; test: NCI single-dose screen (SRB); type: cell-based; conditions: Homo sapiens; Leukemia MOLT-4; 10^−5 M; read-out: Growth inhibition percentage
Protocol: as §1, §2, §3, §4, §5

[24] = system: KM12; test: NCI single-dose screen (SRB); type: cell-based; conditions: Homo sapiens; Colon Cancer KM12; 10^−5 M; read-out: Growth inhibition percentage
Protocol: as §1, §2, §3, §4, §5

[25] = system: PC-3; test: NCI single-dose screen (SRB); type: cell-based; conditions: Homo sapiens; Prostate Cancer PC-3; 10^−5 M; read-out: Growth inhibition percentage
Protocol: as §1, §2, §3, §4, §5

[26] = system: CAKI-1; test: NCI single-dose screen (SRB); type: cell-based; conditions: Homo sapiens; Renal Cancer CAKI-1; 10^−5 M; read-out: Growth inhibition percentage
Protocol: as §1, §2, §3, §4, §5

[27] = system: OVCAR-4; test: NCI single-dose screen (SRB); type: cell-based; conditions: Homo sapiens; Ovarian Cancer OVCAR-4; 10^−5 M; read-out: Growth inhibition percentage
Protocol: as §1, §2, §3, §4, §5

[28] = system: MDA-MB-231/ATCC; test: NCI single-dose screen (SRB); type: cell-based; conditions: Homo sapiens; Breast Cancer MDA-MB-231/ATCC; 10^−5 M; read-out: Growth inhibition percentage
Protocol: as §1, §2, §3, §4, §5

[29] = system: leukemia RPMI-8226; test: MTT antiproliferative assay; conditions: Homo sapiens, RPMI-8226, read-out: Cytotoxicity IC50 RPMI-8226, MTT; mean ± SD
[30] = system: leukemia SR; test: MTT antiproliferative assay; conditions: Homo sapiens, read-out: Cytotoxicity IC50 L.SR

`CCN1C(=O)C(=CC(=O)OC)SC1=NNC(=O)c1cc2ccc1CCc1ccc(cc1)CC2` [Compound 3e] was tested, and the inhibition at 10 µM [1] was 40.3%, the inhibition at 10 µM [2] was 12.7% and the inhibition at 10 µM [3] was 0%. The inhibition at 10 µM [4] was 31.6%, the inhibition at 10 µM [5] was 9.82% and the inhibition at 10 µM [6] was 21%. For the same compound, the inhibition at 10 µM [7] was 5.78%, the inhibition at 10 µM [8] was 114% and the inhibition at 10 µM [9] was 8.06%. For the same compound, the inhibition at 10 µM [10] was 7.26%, the inhibition at 10 µM [11] was 0.72% and the inhibition at 10 µM [12] was 50.5%. The inhibition at 10 µM [13] was 2.18%, the inhibition at 10 µM [14] was 0% and the inhibition at 10 µM [15] was 0%. For the same compound, the inhibition at 10 µM [16] was 6.44%, the inhibition at 10 µM [17] was 54.8% and the inhibition at 10 µM [18] was 3%. The inhibition at 10 µM [19] was 1.03%, the inhibition at 10 µM [20] was 21.4% and the inhibition at 10 µM [21] was 7.5%. It also gave an inhibition at 10 µM [22] of 18.4%, an inhibition at 10 µM [23] of 62.9% and an inhibition at 10 µM [24] of 15%. For the same compound, the inhibition at 10 µM [25] was 43.3%, the inhibition at 10 µM [26] was 0% and the inhibition at 10 µM [27] was 10%. The inhibition at 10 µM [28] was 3.95%, the IC50 [29] was 3.17 ± 0.0489 µM and the IC50 [30] was 5.04 ± 0.0791 µM.
